Like-named read-outs stand apart in the source and are kept apart here.
Experiments:
MM317 = assay: Cytotoxicity assay, primary mesothelioma MM317; type: cell-based, Human; conditions: epithelioid, 72 h, SBR assay, read-out: IC50 ± SD MM317
MM404 = assay: Cytotoxicity assay, primary mesothelioma MM404; type: cell-based, Human; conditions: epithelioid, 72 h, SBR assay; read-out: IC50 ± SD MM404
MM473 = assay: Cytotoxicity assay, primary mesothelioma MM473; type: cell-based, Human; conditions: epithelioid, 72 h, SBR assay; read-out: IC50 ± SD MM473
MM432 = assay: Cytotoxicity assay, primary mesothelioma MM432; type: cell-based, Human; conditions: for IC50: sarcomatoid, 72 h, SBR assay, read-out: IC50 ± SD MM432
MM481 = assay: Cytotoxicity assay, primary mesothelioma MM481; type: cell-based, Human; conditions: epithelioid, 72 h, SBR assay; read-out: IC50 ± SD MM481
MM288 = assay: Cytotoxicity assay, primary mesothelioma MM288; type: cell-based, Human; conditions: for IC50: epithelioid, 72 h, SBR assay, read-out: IC50 ± SD MM288
MM487 = assay: Cytotoxicity assay, primary mesothelioma MM487; type: cell-based, Human; conditions: for IC50: biphasic, 72 h, SBR assay, read-out: IC50 ± SD MM487
MM491 = assay: Cytotoxicity assay, primary mesothelioma MM491; type: cell-based, Human; conditions: biphasic, 72 h, SBR assay; read-out: IC50 ± SD MM491
U-2932 = assay: Cytotoxicity assay (MTT, 72 h) U-2932; type: cell-based, Human; conditions: Homo sapiens, U2932, read-out: IC50 ± SD U-2932
NB4 = assay: Cytotoxicity assay (MTT, 72 h) NB4; type: cell-based, Human; conditions: Homo sapiens, NB-4, read-out: IC50 ± SD NB4
HT29 = assay: Cytotoxicity assay (SRB, 72 h) HT29; type: cell-based, Human; conditions: Homo sapiens, HT-29, read-out: IC50 ± SD HT29
Capan 1 = assay: Cytotoxicity assay (SRB, 72 h) Capan 1; type: cell-based, Human; conditions: Homo sapiens, CAPAN-1, read-out: IC50 ± SD Capan 1
MAVER-2 = assay: Cytotoxicity assay (MTT, 72 h) MAVER-2; type: cell-based, Human; conditions: Homo sapiens, read-out: IC50 ± SD MAVER-2
JECO-1 = assay: Cytotoxicity assay (MTT, 72 h) JECO-1; type: cell-based, Human
KM-H2 = assay: Cytotoxicity assay (MTT, 72 h) KM-H2; type: cell-based, Human
[1] = tested on: hematologic cancer cell lines; assay: Screening on hematologic cancer cell lines (summary); type: cell-based; conditions: Homo sapiens, read-out: IC50 across hematologic cancer cell lines (Tables 5 and 6); span over the cell line panel, 72 h, MTT assay
OCI-LY3 = assay: Cytotoxicity assay (MTT, 72 h) OCI-LY3; type: cell-based, Human; conditions: for IC50: Homo sapiens, OCI-Ly3, 72 h, MTT assay, read-out: IC50 ± SD OCI-LY3
Method: (§1) Human tumor cells were seeded in 96-well cell culture plastic plates, allowed to attach, and exposed to scalar concentrations of the test compounds.

HepG2 = assay: Cytotoxicity assay (SRB, 72 h) HepG2; type: cell-based, Human; conditions: Homo sapiens, HepG2, read-out: IC50 ± SD HepG2
L-428 = assay: Cytotoxicity assay (MTT, 72 h) L-428; type: cell-based, Human; conditions: for IC50: Homo sapiens, L-428, 72 h, MTT assay, read-out: IC50 ± SD L-428
Method: as §1

[2] = tested on: human epithelioid mesothelioma MM473-Luc; assay: In vivo antitumor activity, orthotopic MM473-Luc xenograft; conditions: i.v. 35 mg/kg, q4dx3, treatment from day 15
NCI-H460 NSCLC cells = assay: FACS analysis of cell cycle and apoptosis; type: cell-based, Human; conditions: 72 h at own IC80 dose, PI staining; for Sub-G0/1 (%): apoptosis
NCI-H460 = assay: Cytotoxicity assay (SRB, 72 h) NCI-H460; type: cell-based, Human
DU145 = assay: Cytotoxicity assay (SRB, 72 h) DU145; type: cell-based, Human; conditions: Homo sapiens, DU-145, read-out: IC50 ± SD DU145
A2780-Dx = assay: Cytotoxicity assay (SRB, 72 h) A2780-Dx; type: cell-based, Human; conditions: Homo sapiens, A2780/DX; 72 h, SRB assay; multidrug-resistant ovarian carcinoma; read-out: IC50 ± SD A2780-Dx
A431 = assay: Cytotoxicity assay (SRB, 72 h) A431; type: cell-based, Human; conditions: Homo sapiens, A-431, read-out: IC50 ± SD A431
DG-75 = assay: Cytotoxicity assay (MTT, 72 h) DG-75; type: cell-based, Human
[3] = tested on: primary malignant pleural mesothelioma (MPM) cell lines; assay: Primary malignant pleural mesothelioma (MPM) cell lines (summary); type: cell-based; conditions: Homo sapiens, span over the cell line panel, 72 h, read-out: IC50 across primary mesothelioma cell lines (Table 7)
HeLa = assay: Cytotoxicity assay (SRB, 72 h) HeLa; type: cell-based, Human; conditions: Homo sapiens, HeLa, read-out: IC50 ± SD HeLa
[4] = tested on: series of human tumor cell lines; assay: Antiproliferative activity, series of human tumor cell lines (summary); type: cell-based; conditions: span over the cell line panel, 72 h, SRB assay, read-out: IC50 across the human tumor cell lines of Table 3
MINO = assay: Cytotoxicity assay (MTT, 72 h) MINO; type: cell-based, Human
A2780 = assay: Cytotoxicity assay (SRB, 72 h) A2780; type: cell-based, Human; conditions: Homo sapiens, A2780, read-out: IC50 ± SD A2780
H2A.X = assay: Western blot, H2A.X induction in NCI-H460 cells; type: cell-based, Human; conditions: 24 h; SAHA 5 μM, SN38 0.05 μM, 3d 0.125–0.2–0.5 μM
Method: (§2) The supernatant, containing the total proteins extracts, were transferred in new vials. The protein concentration was measured by Bradford Protein Assay. Equal amounts of proteins for each sample were then resolved by SDS-PAGE and loaded on 10–12% polyacrilamide gels. The proteins were then transferred on nitrocellulose membranes. Molecular weights were estimated based upon the relative migration with molecular weight protein markers.
(§3) The non-specific binding was blocked by incubation of membranes in TBS-tween (25 mM Tris, 150 mM NaCl, 0.1% Tween 20) with 5% nonfat dry milk (BIORAD, Milan) for 60 minutes. Subsequently, the membrane was incubated overnight with primary antibodies: anti-Histone H4 (Millipore, 1:500), anti-acetyl-H4 (Santa Cruz, 1:1000) anti-p21 (Santa Cruz, 1:1000), anti-acetyl-tubulin (abcam, 1:1000), anti-α-tubulin (Sigma, 1:5000), anti β-actin (Sigma, 1:5000) and anti-Topoisomerase 1 (Santa Cruz, 1:500). After three washes with TBST blots were incubated with HRP-coniugated secondary anti-mouse and anti-rabbit (Santa Cruz, 1:5000) 1 hour at room temperature. After three washes with TBST the blots were developed with ECL substrate (GE Healthcare) and chemiluminescence detected by ChemiDoc Imaging System (Biorad). The optical density of the protein bands detected by western blotting was normalized on α -tubulin levels and analyzed by ChemiDoc software (Biorad).
(§4) Cells were lysed in 0.5% NP-40 and 40 μg of total proteins were loaded on NuPAGE 4–12% (Invitrogen), transferred to a nitrocellulose paper and probed with specific antibodies.

CycD1 = assay: Western blot, CycD1 in NCI-H460 cells; type: cell-based, Human; conditions: 24 h; SAHA 5 μM, SN38 0.05 μM, 3d 0.125–0.2–0.5 μM
Method: as §2, §3, §4

RPMI-8226 = assay: Cytotoxicity assay (MTT, 72 h) RPMI-8226; type: cell-based; conditions: Homo sapiens, read-out: IC50 ± SD RPMI-8226
Method: as §1

p16 = assay: Western blot, p16 in NCI-H460 cells; type: cell-based, Human; conditions: 24 h; SAHA 5 μM, SN38 0.05 μM, 3d 0.125–0.2–0.5 μM
Method: as §2, §3, §4

p21 = assay: Western blot, p21 in NCI-H460 cells; type: cell-based, Human; conditions: 24 h; SAHA 5 μM, SN38 0.05 μM, 3d 0.125–0.2–0.5 μM
Method: as §2
as §3, with “software (Biorad). […]” for “software (Biorad).”

p53 = assay: Western blot, p53 in NCI-H460 cells; type: cell-based, Human; conditions: 24 h; SAHA 5 μM, SN38 0.05 μM, 3d 0.125–0.2–0.5 μM
Method: as §2, §3, §4

[5] = meaning not defined in the paper
[6] = meaning not defined in the paper, given beside >10 μM

Work on `O=c1[nH]cc(F)c(=O)[nH]1` [Compound 5-FU] yielded an IC50 (MM317) of 17.9 ± 3.1 µM, an IC50 (MM404) of 52.2 ± 8.7 µM and an IC50 (MM473) of 35.2 ± 8.4 µM. For the same compound, the “percentage in parentheses after IC50 >200, MM432” value (MM432; [5]) was 34%, the IC50 (MM432) was > 200 µM and the IC50 (MM481) was 27.4 ± 2.2 µM. The IC50 (MM288) was > 200 µM, the “percentage in parentheses after IC50 >200, MM288” value (MM288; [5]) was 35% and the IC50 (MM487) was > 200 µM. For the same compound, the “percentage in parentheses after IC50 >200, MM487” value (MM487; [5]) was 48% and the IC50 (MM491) was 44 ± 10.3 µM.

Compound `CCc1c2c(nc3ccc(OC(=O)N4CCC(N5CCCCC5)CC4)cc13)-c1cc3c(c(=O)n1C2)COC(=O)[C@]3(O)CC` [Irinotecan] has an IC50 (U-2932) of 4.4 ± 0.8 µM, an IC50 (NB4) of 1000 ± 300 nM and an IC50 (HT29) of 4.8 ± 0.4 µM. For the same compound, the IC50 (Capan 1) was 1500 ± 100 nM, the IC50 (MAVER-2) was 740 ± 100 nM and the IC50 (JECO-1; Homo sapiens, 72 h, MTT assay, read-out: IC50 ± SD JECO-1) was > 10 µM. For the same compound, the “percentage in parentheses after IC50 >10, JECO-1” value (JECO-1; [6]) was 48%, the IC50 (MM317; Homo sapiens) was 7 ± 1 µM and the IC50 (KM-H2; Homo sapiens, KM-H2, 72 h, MTT assay, read-out: IC50 ± SD KM-H2) was > 10 µM. For the same compound, the “percentage in parentheses after IC50 >10, KM-H2” value (KM-H2; [6]) was 12%, the IC50 [1] was > 10 µM and the IC50 (OCI-LY3) was > 10000 nM. The “percentage in parentheses after IC50 >10, OCI-LY3” value (OCI-LY3; [6]) was 0%, the IC50 (HepG2) was 4 ± 0.8 µM and the IC50 (L-428) was > 10000 nM. For the same compound, the “percentage in parentheses after IC50 >10, L-428” value (L-428; [6]) was 0%, the IC50 (MM432; Homo sapiens) was 10 ± 2 µM and the “antitumor activity (BLI signal, average radiance)” value [2] was “only a marginal antitumor effect”. The “G0/1 (%)” value (NCI-H460 NSCLC cells) was 7.9%, the “G2/M (%)” value (NCI-H460 NSCLC cells) was 3.2% and the “S (%)” value (NCI-H460 NSCLC cells) was 89.0%. The “Sub-G0/1 (%)” value (NCI-H460 NSCLC cells) was 2.7%, the IC50 (NCI-H460; Homo sapiens, NCI-H460, 72 h, SRB assay, read-out: IC50 ± SD NCI-H460) was 2400 ± 100 nM and the IC50 (DU145) was 2800 ± 70 nM. For the same compound, the IC50 (A2780-Dx) was 20.1 ± 2.9 µM, the IC50 (A431) was 4.1 ± 0.1 µM and the IC50 (DG-75; Homo sapiens, DG-75, 72 h, MTT assay, read-out: IC50 ± SD DG-75) was > 10 µM. For the same compound, the “percentage in parentheses after IC50 >10, DG-75” value (DG-75; [6]) was 0%, the IC50 (MM288; Homo sapiens) was 14.9 ± 2 µM and the IC50 [3] was > 7 µM. The IC50 (HeLa) was 5.8 ± 0.6 µM, the IC50 [4] was > 1500 nM and the IC50 (MM487; Homo sapiens, MM487) was 9.4 ± 0.7 µM. The IC50 (MINO; Homo sapiens, MINO, 72 h, MTT assay, read-out: IC50 ± SD MINO) was > 10 µM, the “percentage in parentheses after IC50 >10, MINO” value (MINO; [6]) was 36% and the IC50 (A2780) was 3.8 ± 0.5 µM.

`O=C(CCCCCCC(=O)Nc1ccccc1)NO` [SAHA, suberoylanilide hydroxamic acid] was tested, and the “H2A.X induction (DNA damage)” value (H2A.X) was “completely ineffective in H2A.X induction”, the IC50 (OCI-LY3) was 990 ± 300 nM and the CycD1 regulation (CycD1) was “up-regulated”. The IC50 (L-428) was 2300 ± 500 nM, the IC50 (RPMI-8226) was 1980 ± 500 nM and the “G0/1 (%)” value (NCI-H460 NSCLC cells) was 65.2%. For the same compound, the “G2/M (%)” value (NCI-H460 NSCLC cells) was 23.1%, the “S (%)” value (NCI-H460 NSCLC cells) was 11.7% and the “Sub-G0/1 (%)” value (NCI-H460 NSCLC cells) was 1.8%. The P16 regulation (p16) was “down”, the IC50 [3] was 4 to 12 µM and the “expression of p21” value (p21) was “induction of p21”. The p53 activation (p53) was “less effective in p53 up-regulation”.

For `CCc1c2c(nc3ccc(O)cc13)-c1cc3c(c(=O)n1C2)COC(=O)[C@]3(O)CC` [SN38], the “H2A.X induction (DNA damage)” value (H2A.X) was “completely ineffective in H2A.X induction”, the CycD1 regulation (CycD1) was “didn’t show any effect” and the IC80 (NCI-H460; NCI-H460 cells) was ~50 nM. The P16 regulation (p16) was “didn’t show any effect” and the p53 activation (p53) was “less effective in p53 up-regulation”.

Reference: article PMC6177136, “Hybrid topoisomerase I and HDAC inhibitors as dual action anticancer agents” (PLoS ONE, 2018)
